# US5373040A, “Amorphous solid modification of 2,2',2"-nitrilo[triethyl-tris-(3,3',5,5'-tetra-tert-butyl-1,1'-biphenyl- 2,2'-diyl)phosphite]” (Ciba-Geigy Corporation, priority 1993, dated 1994)
# How the values were obtained:
# [1] = Stabilization of ABS: yellowness index; conditions: 0.25 g per 100 g of ABS; air oven at 180° C. for 45 minutes; versus unstabilized ABS resin
# Protocol: A solution of 0.25 g of the instant compound of Example 1 in 40 ml of hexane/methanol is added to a rapidly stirred suspension of 100 g of ABS (acrylonitrile/butadiene/styrene terpolymer) in 600 g of water. The suspension is filtered and dried under vacuum at 40° C. for 40 hours. To the dried powder is added 2% by weight of titanium dioxide and 1% by weight of N,N'-ethylenebisstearamide on a two roll mill at 180° C. over four minutes. Compression molded plaques (0.8 mm) are prepared at 175° C. and placed in an air oven at 180° C. for 45 minutes. The color of said plaques are determined as yellowness index values using ASTM D1925-70.
# [2] = Stabilization of poly(butylene terephthalate): yellowness index; conditions: 0.3% by weight; versus control unstabilized PBT
# Protocol: Poly(butylene terephthalate), PBT (RYNITE® 9160, DuPont) is tumble blended with 0.3% by weight of the compound of instant Example 1. The polymer is then extruded and pelletized at 260° C. A portion of the collected pellets are reextruded under the same conditions for a second pass. The remainder from the first extrusion is injection molded into 2"×2"×125 mil (5.08 cm×5.08 cm×3.175 mm) plaques at 540° F. (282° C.) with a 100° C. mold temperature in a BOY 30M molder. Intrinsic viscosities of the second pass extrudate and the injection molded plaques are determined.
# The plaques are measured for yellowness index (color) using ASTM D 1925-70.
# [3] = Solubility in LLDPE film by diffusion-in, X-ray fluorescence; assay type: physicochemical
# Protocol: Experiments are carried out to determine the solubility of the instant compound into linear low density polyethylene (LLDPE) films at 20° C., 40° C. and 60° C. by diffusion-in of a relatively homogeneous particle size (<70 microns) of the test sample suspended in silicon oil.
# Each sample is carefully ground with a mortar and pestle and the particle size below 70 microns is separated by sieving with a 200 mesh screen. The powder is then suspended in silicon oil (polydimethylsiloxane, L-45, Union Carbide Chemicals) at a concentration of approximately 38% (wt/wt). A few drops of this suspension is placed on a 10 mil (0.254 mm) thick, 2"×2" (5.08 cm×5.08 cm) compression molded film and a second film of the same dimension is placed on top. The films are gently pressed together so that the suspension forms a thin liquid layer between the polymer films. Excess suspension is removed and the procedure is repeated till a stack of eight films (six films for evaluation) are prepared. The stack is then placed between two 2.5"×2.5" (6.35 cm×6.35 cm) ceramic tiles and wrapped in aluminum foil and held together with a G-clamp. Each stack is aged at 20° C., 40° C. and 60° C. under a nitrogen atmosphere. At specified intervals, a single film is removed from the stack and the excess suspension is washed from the film with hexane. The film is then analyzed by X-ray fluorescence for total phosphorus content. LLDPE containing 0, 1000 ppm and 2000 ppm of the test compound are used as standard controls for this X-ray fluorescence method.
# [4] = Stabilization of poly(ethylene terephthalate): intrinsic viscosity; conditions: 0.5% by weight, five extrusion passes; versus PET containing no stabilizer
# Protocol: Poly(ethylene terephthalate), PET (KODAPAR® 7352, Eastman Chemical) is tumble blended with 0.5% by weight of the compound of instant Example 1. The polymer is then extruded and pelletized at 500° F. (260°C.) in a MPM 1" (2.54 cm) single screw extruder. The pellets are collected, redried and reextruded 5 times. Pellets are collected from each extrusion pass and the polymer intrinsic viscosity measured.
# [5] = Solubility in lubricating oil (Mobil BB oil); assay type: physicochemical
# Protocol: The following experiments are performed to determine the solubility of amorphous compound A and crystalline compound B in Mobil BB oil. Both compounds have the same uniform particle sizes (40-70 micron).
# Compound A=amorphous form of 2,2',2"-nitrilo-[triethyl-tris-(3,3',5,5'-tetra-tert-butyl-1,1'-biphenyl-2,2'-diyl) phosphite], prepared in accordance with instant Example 1.
# Compound B=crystalline form of 2,2',2"-nitrilo[triethyl-tris-(3,3',5,5'-tetra-tert-butyl-1,1'-biphenyl-2,2'-diyl) phosphite], prepared in accordance with Example 4 of U.S. Pat. No. 4,318,845.
# Into a vial of 980 mg. of Mobil BB oil is added 20 mg. of compound A at ambient temperature. For the first 30 minutes, the vial is shaken every 10 minutes. After the initial 30 minutes, the vial is left standing.
# Into a vial of 980 mg. of Mobil BB oil is added 20 mg. of compound B at ambient temperature. For the first 30 minutes, the vial is shaken every 10 minutes. After the initial 30 minutes, the vial is left standing.
# Into a vial of 980 mg. of Mobil BB oil is added 20 mg. of compound A at ambient temperature. The vial is then placed into a 60° C. oil bath.
# Into a vial of 980 mg. of Mobil BB oil is added 20 mg. of compound B at ambient temperature. The vial is then placed into a 60° C. oil bath.
# Into a vial of 990 mg. of Mobil BB oil is added 10 mg. of compound A at ambient temperature. […] is shaken every 10 minutes. After the initial 30 minutes, the vial is left standing.
# Into a vial of 990 mg. of Mobil BB oil is added 10 mg. of compound B at ambient temperature. […] is shaken every 10 minutes. After the initial 30 minutes, the vial is left standing.
# [6] = compared to the prior art crystalline form
smiles,measurement,setting,value
"CC(C)(C)c1cc(C(C)(C)C)c2op(OCCN(CCOp3oc4c(C(C)(C)C)cc(C(C)(C)C)cc4c4cc(C(C)(C)C)cc(C(C)(C)C)c4o3)CCOp3oc4c(C(C)(C)C)cc(C(C)(C)C)cc4c4cc(C(C)(C)C)cc(C(C)(C)C)c4o3)oc3c(C(C)(C)C)cc(C(C)(C)C)cc3c2c1 [Example 1, 2,2',2""-nitrilo[triethyl-tris-(3,3',5,5'-tetra-tert-butyl-1,1'-biphenyl-2,2'-diyl)phosphite]]",yellowness index,[1],lower yellowness index values (less discoloration)
same,yellowness index (color),[2],lower YI values (less discoloration)
same,Solubility of Compound in LLDPE at 20° C.,[3]; interval 15 (time unit not given),7200 ppm
same,Solubility of Compound in LLDPE at 20° C.,[3]; interval 28 (time unit not given),5100 ppm
same,Solubility of Compound in LLDPE at 20° C.,[3]; interval 35 (time unit not given),3800 ppm
same,Solubility of Compound in LLDPE at 20° C.,[3]; interval 44 (time unit not given),4700 ppm
same,Solubility of Compound in LLDPE at 40° C.,[3]; interval 10 (time unit not given),2500 ppm
same,Solubility of Compound in LLDPE at 40° C.,[3]; interval 17 (time unit not given),2100 ppm
same,Solubility of Compound in LLDPE at 40° C.,[3]; interval 25 (time unit not given),2400 ppm
same,Solubility of Compound in LLDPE at 40° C.,[3]; interval 34 (time unit not given),1700 ppm
same,Solubility of Compound in LLDPE at 40° C.,[3]; interval 40 (time unit not given),1900 ppm
same,Solubility of Compound in LLDPE at 40° C.,[3]; interval 47 (time unit not given),2200 ppm
same,Solubility of Compound in LLDPE at 20° C.,"[3]; third section, interval 6 (time unit not given)",3400 ppm
same,Solubility of Compound in LLDPE at 20° C.,"[3]; third section, interval 14 (time unit not given)",4000 ppm
same,Solubility of Compound in LLDPE at 20° C.,"[3]; third section, interval 22 (time unit not given)",4500 ppm
same,Solubility of Compound in LLDPE at 20° C.,"[3]; third section, interval 28 (time unit not given)",3800 ppm
same,Solubility of Compound in LLDPE at 20° C.,"[3]; third section, interval 37 (time unit not given)",4100 ppm
same,solubility in LLDPE,"[3]; versus prior art compound of Example 4 of U.S. Pat. No. 4,318,845",far more soluble
same,retention of original intrinsic viscosity,[4],higher retention of original intrinsic viscosity
same,Observation,"[5]; 1% by weight in Mobil BB oil, RT, 1.5 hrs., listed as A",Clear solution
same,Observation,"[5]; 1% by weight in Mobil BB oil, RT, 1.5 hrs., listed as compound A",clear solution
same,Time to clear solution,"[5]; 1% by weight in Mobil BB oil, RT, listed as A",1.5 h
same,Time to clear solution,"[5]; 1% by weight in Mobil BB oil, RT, listed as compound A",1.5 h
same,Observation,"[5]; 2% by weight in Mobil BB oil, 60° C. oil bath, 10 min., listed as A",Clear solution
same,Observation,"[5]; 2% by weight in Mobil BB oil, 60° C. oil bath, 10 min., listed as compound A",clear solution
same,Time to clear solution,"[5]; 2% by weight in Mobil BB oil, 60° C. oil bath, listed as A",0.167 h
same,Time to clear solution,"[5]; 2% by weight in Mobil BB oil, 60° C. oil bath, listed as compound A",0.167 h
same,Observation,"[5]; 2% by weight in Mobil BB oil, RT, 2.5 hrs., listed as A",Clear solution
same,Observation,"[5]; 2% by weight in Mobil BB oil, RT, 2.5 hrs., listed as compound A",clear solution
same,Time to clear solution,"[5]; 2% by weight in Mobil BB oil, RT, listed as A",2.5 h
same,Time to clear solution,"[5]; 2% by weight in Mobil BB oil, RT, listed as compound A",2.5 h
same,rate of dissolving in lubricants,[5]; [6],faster rate of dissolving
same,"rate of dissolving in organic materials, such as in polymers and in lubricants",[5]; [6],faster rate of dissolving
same,solubility in lubricants,[5]; [6],better solubility
same,"solubility in organic materials, such as in polymers and in lubricants",[5]; [6],better solubility
